Experimental findings from the OPERA property sets (Mansouri et al. 2018) are described below.

Each structure is given as a SMILES string. Where a SMILES comes first, the peptide text is derived from it. The star is where a group is joined. X1 = O=C(CCCCSc1[nH]cnc2ncnc1-2)*

With `CC1CSC2C(NC(=O)C(O)c3ccccc3)C(=O)N2C1C(=O)O` (centres undefined), the logP came to 0.47.
With `CN(C)N=Nc1ccc(CC(=O)O)cc1`, the logP worked out at 1.38.
In turn, `Nc1ccc2c(c1)C(=O)N(O)C2=O` showed a logP of 0.16.
With `O=C(O)CCc1cc(=O)c2cc3c(cc2o1)CCCC3` the figure was 2.85.
Consider `CNC(Cc1ccccc1)C(=O)O` (centres undefined), for which the logP was -1.53.
Molecule `Clc1cc2c(cc1Cl)Oc1c(Cl)ccc(Cl)c1O2` yielded a logP of 6.39.
`COCCCNC(=S)Cn1cnc([N+](=O)[O-])n1` displayed a logP of 0.63.
In the case of `CCCCN(C)N=Nc1ccccc1C(N)=O`, the logP came to 3.52.
On to `O=C(c1c[nH]c2ccccc12)C(F)(F)F`, for which the logP turned out to be 3.44.
In the case of `CC(=O)NC(CC(=O)O)C(=O)NC(Cc1ccccc1)C(=O)NC(CC(C)C)C(N)=O` (stereo not drawn) (Ac-Asp-Phe-Leu-NH2; configuration not given here), the logP amounted to 0.4.
The value for `C1CC2=NOS3=C2C(=NO3)C1` was 1.1; that for `COc1ccc(NC(=O)OCCN2CCOCC2)cc1` was 1.7; that for `CCC1COC(Cn2cncn2)(c2ccc([N+](=O)[O-])cc2)O1` (centres undefined) was 1.52.
The value for `CCOC(=O)CNC(=O)CNC(=O)CNC(=O)CNC(=O)CCCCSc1[nH]cnc2ncnc1-2` (X1-GGGG-OEt) was -0.23; that for `Clc1cc(Cl)c(Cl)c(-c2cc(Cl)cc(Cl)c2Cl)c1` was 7.07.
With `CCCN1CC(NS(=O)(=O)N(CC)CC)C=C2c3cc(O)ccc3CCC21` (centres undefined) the figure was 2.63; with `C=C1C(=O)OC2CC(C)C3C=CC(=O)C3(C)C(OC(=O)CCCC(=O)OC3C4C(=C)C(=O)OC4CC(C)C4C=CC(=O)C43C)C12` (centres undefined), 1.37.
Molecule `CCC(=O)C1(c2cccc(OC(=O)OC)c2)CCN(C)CC1` registered a logP of 0.75.
With `CC(C)(C)NC(=O)C1CN(S(=O)(=O)c2cccc3cccnc23)CCN1CC(O)CC(Cc1ccccc1)C(=O)NC1c2ccccc2CC1O` (centres undefined) the figure was 3.7.
The value for `CC1CC2C3CCC4=CC(=O)C=CC4(C)C3(F)C(O)CC2(C)C1(O)C(N)=O` (centres undefined) was 1.41; that for `COc1nc(N(C)C)nc(C(Cl)(Cl)Cl)n1` was 3.33; that for `COC1=CC2CCC(NC(C)=O)c3cc(=O)c(OC)ccc3C2C(OC)=C1O` (centres undefined) was 0.47.
With `Cc1cccc(C)c1NN=C(C#N)C#N` the figure was 2.8.
Molecule `CN1C=CCC(C(=O)OC2CCC(NC(=O)N(CCCl)N=O)CC2)=C1` (centres undefined) registered a lipophilicity (logP) of 2.53.

For orientation: logP means the decadic logarithm of the partition coefficient of the neutral form, usually between octanol and water.
